Assay results reported in patent publication US9879002B2, “PDE10 inhibitors and related compositions and methods” (Omeros Corporation, priority 2015, dated 2018).
In brackets after ≈: the same amount, converted by molar mass. Read-outs that look alike come from different tables or passages of the source.

Tests used:
[1] = molecular target: T1, PDE10 (Mus musculus, UniProt Q8CA95); details: cited from Soderling and Beavo 2000; read-out: IC50 (50% inhibitory concentration); cited from earlier work
T1 sequence (Q8CA95 1-790): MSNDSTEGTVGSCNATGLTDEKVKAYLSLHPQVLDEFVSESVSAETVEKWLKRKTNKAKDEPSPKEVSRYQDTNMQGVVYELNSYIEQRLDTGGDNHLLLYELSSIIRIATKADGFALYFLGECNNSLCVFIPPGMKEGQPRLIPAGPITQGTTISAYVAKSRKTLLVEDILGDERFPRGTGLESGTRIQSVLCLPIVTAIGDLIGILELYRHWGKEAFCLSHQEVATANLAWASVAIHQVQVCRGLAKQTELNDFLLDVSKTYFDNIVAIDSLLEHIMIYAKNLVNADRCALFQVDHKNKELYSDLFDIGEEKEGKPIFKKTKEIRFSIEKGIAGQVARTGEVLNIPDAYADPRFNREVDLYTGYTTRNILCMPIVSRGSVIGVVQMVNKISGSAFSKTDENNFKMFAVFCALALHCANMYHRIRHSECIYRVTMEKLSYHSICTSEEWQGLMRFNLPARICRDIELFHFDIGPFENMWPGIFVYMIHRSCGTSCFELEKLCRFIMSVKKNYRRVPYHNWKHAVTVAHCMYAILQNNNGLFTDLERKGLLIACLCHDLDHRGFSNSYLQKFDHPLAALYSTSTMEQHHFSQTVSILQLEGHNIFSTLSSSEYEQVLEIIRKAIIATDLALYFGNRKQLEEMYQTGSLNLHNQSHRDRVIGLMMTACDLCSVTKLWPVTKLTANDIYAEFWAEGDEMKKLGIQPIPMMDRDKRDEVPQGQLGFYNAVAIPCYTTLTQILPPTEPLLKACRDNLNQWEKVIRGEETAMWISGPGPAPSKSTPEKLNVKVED

[2] = molecular target: PDE10 (Homo sapiens, UniProt Q9Y233); assay: PDE10 biochemical assay (scintillation proximity assay, [3H]-cGMP substrate)
PDE10 (Homo sapiens, UniProt Q9Y233), sequence (Q9Y233 whole entry): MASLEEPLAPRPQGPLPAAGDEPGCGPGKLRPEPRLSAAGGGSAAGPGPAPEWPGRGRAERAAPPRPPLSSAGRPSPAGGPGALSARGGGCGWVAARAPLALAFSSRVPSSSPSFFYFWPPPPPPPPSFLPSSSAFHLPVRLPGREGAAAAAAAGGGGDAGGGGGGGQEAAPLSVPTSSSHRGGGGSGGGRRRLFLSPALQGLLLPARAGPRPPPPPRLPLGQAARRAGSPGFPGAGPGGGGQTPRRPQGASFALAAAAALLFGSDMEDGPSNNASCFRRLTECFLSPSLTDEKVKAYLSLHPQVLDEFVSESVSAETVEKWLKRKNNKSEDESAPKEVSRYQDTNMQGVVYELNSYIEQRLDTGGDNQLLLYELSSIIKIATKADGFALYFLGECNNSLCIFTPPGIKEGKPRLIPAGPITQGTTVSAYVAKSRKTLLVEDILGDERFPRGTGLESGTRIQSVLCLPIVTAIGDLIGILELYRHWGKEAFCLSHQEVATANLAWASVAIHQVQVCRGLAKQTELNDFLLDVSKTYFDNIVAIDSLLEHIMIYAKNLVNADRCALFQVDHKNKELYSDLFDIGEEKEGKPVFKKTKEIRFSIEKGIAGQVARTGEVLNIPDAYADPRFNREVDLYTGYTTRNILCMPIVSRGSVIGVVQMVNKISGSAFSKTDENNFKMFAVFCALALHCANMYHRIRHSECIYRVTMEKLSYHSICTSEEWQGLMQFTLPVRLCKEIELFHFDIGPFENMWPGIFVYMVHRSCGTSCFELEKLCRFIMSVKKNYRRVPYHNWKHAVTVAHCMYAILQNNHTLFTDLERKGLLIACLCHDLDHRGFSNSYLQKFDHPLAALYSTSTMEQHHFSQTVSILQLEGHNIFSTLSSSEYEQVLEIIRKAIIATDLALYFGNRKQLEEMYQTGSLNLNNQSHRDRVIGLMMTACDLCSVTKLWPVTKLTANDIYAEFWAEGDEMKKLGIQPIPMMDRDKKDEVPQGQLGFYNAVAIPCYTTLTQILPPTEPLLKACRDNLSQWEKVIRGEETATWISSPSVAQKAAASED
Description: The phosphodiesterase (PDE) activity was measured using a scintillation proximity assay (SPA) with [^3H]-cGMP as the substrate. Purified PDE10 was stored in 40 mM Tris-Cl (pH 8.0)/100 mM NaCl/0.04% Tween-20/20% Glycerol/3 mM DTT and then used to prepare a 10×PDE solution in 50 mM Tris-Cl (pH 7.5)/8.3 mM MgCl2/1.7 mM EGTA. Assays contained (final concentrations): 50 mM Tris-Cl (pH 7.5)/8.3 mM MgCl2/1.7 mM EGTA/0.5 mg/ml BSA/1% DMSO and 2 ng PDE10 in a final volume of 0.1 mL. Inhibition was evaluated at 8 concentrations in duplicate. Reactions were initiated by addition of enzyme and were terminated after 20 minutes at 30° C. by the addition of 50 μl of SPA beads containing Zn^++. The mixture was shaken, allowed to settle for at least 1 hour, and counted in a Wallac plate counter. Results (net cpm) were fitted to a four parameter logistic model using Excel Solver®.

[3] = Solubility assay in simulated Intestinal Fluid pH 7.5; type: physicochemical; details: fassgf or other biorelevant, kinetic from dmso stock, shaken 24 hours at room temperature, from 10 mM DMSO stock, detection limit approximately 1 μM, read-out: Solubility test results: Conc. (μM), pH 7.5 (IF)
Description: Solubility of each compound was measured by adding 4 μl of a 10 mM DMSO compound stock to 396 μl buffer (either a simulated Gastric Fluid pH 1.2 (0.2% NaCl, 0.7% HCl) or simulated Intestinal Fluid pH 7.5 (0.68% KHPO4, pH with NaOH)). This was shaken for 24 hours at room temperature, spun at 14,000 rpm for 5 minutes, and the supernatant was transferred into a clean eppendorf tube. The absorption spectra of the compound-containing supernatant were measured from 220 to 400 nm and compared with the absorption spectra of a 10 μM acetonitrile stock of the same compound. The concentration of the compound in the supernatant was calculated by comparing the absorbance maximum of the compound in the simulated buffer to that in acetonitrile.

[4] = SPA, [3H]-cGMP, 20 minutes at 30° C., 8 concentrations in duplicate, read-out: Average IC50
[5] = text statement on the PDE10 biochemical assay, read-out: IC50

Row | IC50 [2, 4] | IC50 [2, 5] | solubility at 24 h [3] | SMILES | IC50 [1]
1 |  |  |  | CC(C)Cn1c(=O)n(C)c(=O)c2[nH]cnc21 [IBMX] | 2600 nM
2 | 127 nM | ≤ 1000 nM | 2.5 µM (≈ 1.25 µg/mL) | CCOC(c1ccc(-c2nnc(C)s2)cc1)C(O)c1ccc(-c2cc(OC)c(Cl)c(OC)c2)o1 (centres unmarked) [Compound 4, 1-(5-(4-chloro-3,5-dimethoxyphenyl)furan-2-yl)-2-ethoxy-2-(4-(5-methyl-1,3,4-thiadiazol-2-yl)phenyl)ethan-1-ol] | 
3 | 652 nM | ≤ 1000 nM | 78.3 µM (≈ 51.8 µg/mL) | CCOC(C(=O)c1ccc(-c2cc(OC)c(Cl)c(O[C@H]3O[C@H](C(=O)O)[C@@H](O)[C@H](O)[C@H]3O)c2)o1)c1ccc(-c2nnc(C)s2)cc1 (stereo partly drawn) [Compound 3, (2S,3S,4S,5R,6R)-6-(2-chloro-5-(5-(2-ethoxy-2-(5-methyl-1,3,4-thiadiazol-2-yl)phenyl)acetyl)furan-2-yl-methoxyphenoxy)-3,4,5-trihydroxytetrahydro-2H-pyran-2-carboxylic acid] | 
4 |  |  | < 1 µM | CCOC(C(=O)c1ccc(-c2cc(OC)c(Cl)c(OC)c2)o1)c1ccc(-c2nnc(C)s2)cc1 (centres unmarked) [Compound A, 1-(5-(4-chloro-3,5-dimethoxyphenyl)furan-2-yl)-2-ethoxy-2-(4-(5-methyl-l,3,4-thiadiazol-2-yl)phenyl)ethan-1-one, reference compound] | 
5 | 1.3 nM | ≤ 1000 nM | 5.8 µM (≈ 2.99 µg/mL) | CCOC(C(=O)c1ccc(-c2cc(OC)c(Cl)c(OC)c2)o1)c1ccc(-c2nnc(CO)s2)cc1 (centres unmarked) [Compound 2, 1-(5-(4-chloro-3,5-dimethoxyphenyl)furan-2-yl)-2-ethoxy-2-(4-(5-(hydroxymethyl)-1,3,4-thiadiazol-2-yl)phenyl)ethan-1-one] | 
6 | 37.7 nM | ≤ 1000 nM | 2.5 µM (≈ 1.21 µg/mL) | CCOC(C(=O)c1ccc(-c2cc(O)c(Cl)c(OC)c2)o1)c1ccc(-c2nnc(C)s2)cc1 (centres unmarked) [Compound 1, 1-[5-(4-chloro-3-hydroxy-5-methoxyphenyl)furan-2-yl]-2-ethoxy-2-[4-(5-methyl-1,3,4-thiadiazol-yl)phenyl]ethanone] | 
